Data published in US20250281624A1, “METHODS AND COMPOSITIONS FOR TREATING CHRONIC INFLAMMATORY INJURY, METAPLASIA, DYSPLASIA AND CANCERS OF EPITHELIAL TISSUES” (University of Houston System, priority 2021, published 2025).

Key:
Format in all cases: cell-based, human
BE1 stem cells = assay: Small molecule screen and dose-response in 384-well plates, BE1 stem cells
[1] = tested on: normal esophageal stem cells; assay: Small molecule screen and dose-response in 384-well plates, normal esophageal stem cells
[2] = tested on: BE1 and normal esophageal stem cells; assay: Co-cultures of BE1 and normal esophageal stem cells; details: in combination with ponatinib
Excerpt: FIGS. 6a-g. Drug development for precursor lesions. FIG. 6a. […] FIG. 6b. […] FIG. 6c. Dose-response curves of candidate drug (CEP-18770). FIG. 6d. […] FIG. 6e. […] FIG. 6f. […] FIG. 6g.
Small molecule screens against precursor stem cells. Given that Barrett's esophagus is an essential precursor for EAC, the inventors adapted BE1 stem cells to high-throughput screening platforms to identify proof-of-concept leads for preemptive therapies.

IC50 (BE1 stem cells; in combination with ponatinib, read-out: IC50 for eliminating BE1 stem cells)	Structure (SMILES)	Growth of BE1 stem cells (BE1 stem cells; single agent)	Growth of normal esophageal stem cells ([1]; single agent, screens of stem cells from eight cases)	Impact on normal esophageal stem cells ([1]; in combination with ponatinib)	Effect on normal esophageal stem cells in co-culture ([2]; co-culture with BE1 stem cells)	Effect on BE1 cells in co-culture ([2]; co-culture with normal esophageal stem cells)
–	Cc1ccc(C(=O)Nc2ccc(CN3CCN(C)CC3)c(C(F)(F)F)c2)cc1C#Cc1cnc2cccnn12 [ponatinib, 3-[2-(Imidazo[1,2-b]pyridazin-3-yl)ethynyl]-4-methyl-N-[4-(4-methylpiperazin-1-ylmethyl)-3-(trifluoromethyl)phenyl]benzamide]	marginally inhibiting the growth	best of these esophageal stem cell “promoters”	–	–	–
< 1 nM	CN[C@@H](C)C(=O)N[C@H]1CCCC[C@H]2CC[C@@H](C(=O)N[C@@H](c3ccccc3)c3cn(CCCCc4ccc(CCCCn5cc([C@@H](NC(=O)[C@@H]6CC[C@@H]7CCCC[C@H](NC(=O)[C@H](C)NC)C(=O)N76)c6ccccc6)nn5)cc4)nn3)N2C1=O [SM-164]	–	–	minimal impact	promotes the expansion	selectively eliminates the BE1 cells
